US20250034079A1, “PROCESS FOR RECOVERING AMINOBENZOIC ACID FROM AN AQUEOUS MOTHER LIQUOR” (Covestro Deutschland AG, priority 2021, published 2025)
≈ marks a conversion by molar mass, not a printed value.

What was measured:
[1] = physchem; details: for solubility: water; for Solubility in water at RT: solubility of the extractant
Experimental: (§1) The remaining mother liquor was extracted in one stage with various solvents (step (C)). […] The extraction was conducted at 30° C. The experiments were assessed by ascertaining the partition coefficients K (=ratio of the ortho-aminobenzoic acid [oAB] concentration in g/L in the organic phase [ORG=first alcoholic phase] to the aqueous phase [AQ=first aqueous phase]), the solubilities of the extractant in the aqueous phase after the extraction (=first aqueous phase) and—in four cases—the proportion by mass of organic secondary components (SC) in the organic extract phase (=first alcoholic phase) based on the totality of the organic secondary components in the two phases (=m(SC)ORG/m(SC)TOT). For this purpose, a separation was conducted by HPLC; organic impurities that elute earlier than ortho-aminobenzoic acid are referred to collectively as polar secondary components, and organic impurities that elute later than ortho-aminobenzoic acid as nonpolar secondary components.

[2] = One-stage extraction of ortho-aminobenzoic acid from crystallization mother liquor with various extractants (partition coefficient); details: pH 3.5±0.2, 8.7 g/L oAB, phase ratio organic to aqueous 0.5, 30° C.
Experimental: For the evaluation of the distribution of a component between two phases, the two phases were analyzed by HPLC-MS (with identical sample preparation and method). The coefficients of distribution were then determined as the ratio of peak areas for the same retention time.
as §1

CCCCCCCCCCO [1-Decanol]
solubility [1]: 40 µg/mL (≈ 253 µM)

CCC(C)=O [2-Butanone]
K = c(oAB)ORG/c(oAB)AQ (partition coefficient of ortho-aminobenzoic acid, organic to aqueous phase) [2]: 26.12

CCCCOC(C)=O [Butyl acetate]
solubility [1]: ~6000 µg/mL

CC1CCCC1 [Methylcyclopentane]
Solubility in water at RT [1]: insoluble

CCCCCCCC/C=C\CCCCCCCCO [Oleyl alcohol]
Solubility in water at RT [1]: insoluble
